A short description of data set [1]: Dissociation constant, pKa of the compound. The format is physicochemical.
The subject of data set [2] is Rattus norvegicus. Put plainly: Dose normalized AUC (0 to t) in rat at 30 mg/kg, po after 6 hrs. The settings on record: in vivo. The format is ADME, organism-based. Set-up: time < 6 hr, dose 30 mg/kg, route oral.
Data set [3] in a line: Oral bioavailability in rat at 3 mg/kg. The settings on record: in vivo. The format is ADME, organism-based.
A short description of data set [4]: Clearance in rat at 1 mg/kg, iv. The format is ADME, organism-based. Set-up: dose 1 mg/kg, route intravenous. The settings on record: in vivo.
A short description of data set [5]: Volume of distribution in rat at 1 mg/kg, iv. The format is ADME, organism-based. Set-up: dose 1 mg/kg, route intravenous. The settings on record: in vivo.
A short description of data set [6]: Half life in rat at 1 mg/kg, iv. The settings on record: in vivo. On the set-up: dose 1 mg/kg, route intravenous. The class given is ADME, organism-based.

Each structure is given as a SMILES string. “And” between values parts separate entries of the source, which are not always exact repeats. Equal entries are not always repeated.

In data set [1], `CC(C)c1cc(Nc2cccc(Cl)c2)ncc1C(=O)NCC1CCOCC1` had a pKa of 6.02.
The compound `O=C(NCC1CCOCC1)c1cnc(Nc2cccc(Br)c2)cc1C1CC1` registered an AUC in data set [2] of 5 kg·min/L.
On to `O=C(NCC1CCOCC1)c1cnc(Nc2ccc(Cl)cc2Cl)cc1C1CC1`, for which, in data set [3], the bioavailability is 39%. The compound also yielded an AUC in data set [2] of 15 kg·min/L. Also, the clearance in data set [4] was 14 mL/min/kg and 14 mL/min. This compound also returned a Vd in data set [5] of 2.4 L/kg. In addition, the half-life in data set [6] is 3.1 h.
Consider `O=C(NCC1CCOCC1)c1cnc(Nc2cccc(Cl)c2)cc1C(F)(F)F`, for which the pKa in data set [1] was determined as 2.63.
The compound `CC(C)CNC(=O)c1cnc(Nc2cccc(Cl)c2)cc1C(C)C` came in with a pKa in data set [1] of 6.02.
Compound `O=C(NCC1CCOCC1)c1cnc(Nc2cccc(F)c2)cc1C(F)(F)F` gave a pKa in data set [1] of 2.63.
Same read-out and setting: in the case of `Cc1cc(Cl)ccc1Nc1cc(C(F)(F)F)c(C(=O)NCC2CCOCC2)cn1` it was 2.63; in that of `CC(C)c1cc(Nc2cccc(C#N)c2)ncc1C(=O)NCC1CCOCC1`, 6.02; in that of `Cc1cccc(Nc2cc(C(C)C)c(C(=O)NCC3CCC3)cn2)c1`, 6.02.
Same read-out and setting: with `COc1ccc(Cl)cc1Nc1cc(C(F)(F)F)c(C(=O)NCC2CCOCC2)cn1` the figure was 2.63; with `Cc1cccc(Nc2cc(C(C)C)c(C(=O)NCC3CCOCC3)cn2)c1`, 6.02; with `CC(C)c1cc(Nc2cccc(Cl)c2)ncc1C(=O)NC1CCOCC1`, 6.02.
For `CCC(CC)CNC(=O)c1cnc(Nc2cccc(Cl)c2)cc1C(C)C`, the pKa in data set [1] turned out to be 6.02.
Still for that read-out and setting: with `CC(C)c1cc(Nc2cccc(Cl)c2)ncc1C(=O)NCc1ccc(F)cc1` the figure was 6.02; with `CC(C)c1cc(Nc2ccc(Cl)cc2Cl)ncc1C(=O)NCC1CCOCC1`, 6.02.
Compound `O=C(NCC1CCCC1)c1cnc(Nc2ccc(Cl)cc2Cl)cc1C(F)(F)F` had a pKa in data set [1] of 2.63.
`CC(C)(C)c1cc(Nc2ccc(Cl)cc2Cl)ncc1C(=O)NCC1CCOCC1`: the AUC in data set [2] was 16 kg·min/L.
Regarding `CC(C)c1cc(Nc2cccc(Cl)c2)ncc1C(=O)NCC(C)(C)C`, the pKa in data set [1] came out at 6.02.
Same read-out and setting: in the case of `NC(=O)c1ccc(CNC(=O)c2cnc(Nc3cccc(Cl)c3)cc2C(F)(F)F)cc1` it was 2.63; in that of `COc1ccc(Cl)cc1Nc1cc(C(F)(F)F)c(C(=O)NCC2CCC2)cn1`, 2.63; in that of `O=C(NCC1CCCCC1)c1cnc(Nc2cccc(Cl)c2)cc1C(F)(F)F`, 2.63.
`O=C(NCC1CCOCC1)c1cnc(Nc2ccc(Cl)cc2Cl)cc1C(F)(F)F` gave a pKa in data set [1] of 2.63.
Still for that read-out and setting: with `COc1cccc(Nc2cc(C(C)C)c(C(=O)NCC3CCOCC3)cn2)c1` the figure was 6.02.
Take `CC(C)c1cc(Nc2cccc(Br)c2)ncc1C(=O)NCC1CCOCC1`: the pKa in data set [1] worked out at 6.02.
In data set [1], `O=C(NCc1ccc(F)cc1)c1cnc(Nc2cccc(Br)c2)cc1C(F)(F)F` showed a pKa of 2.63.
Same read-out and setting: with `CC(C)c1cc(Nc2cccc(Cl)c2)ncc1C(=O)NCC1CCCC1` the figure was 6.02; with `CC(C)c1cc(Nc2ccc(C#N)c(Cl)c2)ncc1C(=O)NCC1CCOCC1`, 6.02.
For the compound `O=C(NCC1CCOCC1)c1cnc(Nc2cccc(OC(F)(F)F)c2)cc1C1CC1`, the AUC in data set [2] is 3 kg·min/L.
As to `CC(C)c1cc(Nc2cccc(C(F)(F)F)c2F)ncc1C(=O)NCC1CCOCC1`, in data set [1], the pKa worked out at 6.02.

The record behind these values is ChEMBL document CHEMBL1139246, “Pyridine-3-carboxamides as novel CB(2) agonists for analgesia” (Bioorg Med Chem Lett, 2009).
